Measured values: ChEMBL document CHEMBL1201862, “PubChem BioAssay data set” (2004)
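Five compound concentrations were applied to cells in 96-well plates for 48 hours; endpoints were derived by simple linear interpolation of the resulting dose-response curve. The concentration for 50% growth inhibition is given as GI50.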 Activity calls are given as the source filed them. Cut-off read from the data, not from the text of the source: active = GI50 up to about 1.1 µM and inactive = higher.

Tests used:
Experiment in all cases: NCI tumour cell line growth inhibition, 48 h
RXF 393 = tested on: RXF 393
UACC-62 = tested on: UACC-62
OVCAR-5 = tested on: OVCAR-5
SK-MEL-28 = tested on: SK-MEL-28
HOP-92 = tested on: HOP-92
SW-620 = tested on: SW-620
OVCAR-3 = tested on: OVCAR-3
NCI-H522 = tested on: NCI-H522
SK-OV-3 = tested on: SK-OV-3
NCI-H460 = tested on: NCI-H460
SF-268 = tested on: SF-268
SF-539 = tested on: SF-539
SNB-75 = tested on: SNB-75
HL-60 = tested on: HL-60
SK-MEL-2 = tested on: SK-MEL-2
SN12C = tested on: SN12C
HT-29 = tested on: HT-29
KM12 = tested on: KM12
COLO 205 = tested on: COLO 205
LOX IMVI = tested on: LOX IMVI

Measured: GI50

COc1nc(N)nc2nc[nH]c12
inactive: RXF 393 313 µM | UACC-62 160 µM | OVCAR-5 345 µM | SK-MEL-28 > 419 µM | HOP-92 235 µM | SW-620 > 500 µM | OVCAR-3 497 µM | NCI-H522 440 µM | SK-OV-3 129 µM | NCI-H460 430 µM | SF-268 435 µM | SF-539 495 µM | SNB-75 208 µM | HL-60 383 µM | SK-MEL-2 460 µM | SN12C 441 µM | HT-29 495 µM | KM12 > 500 µM | COLO 205 393 µM | LOX IMVI 381 µM

CCOC(=O)CNC(=O)C(CCC(=O)N(C)O)NC(=O)CCC(N)C(=O)O (stereo unspecified)
inactive: RXF 393 > 100 µM | UACC-62 > 100 µM | OVCAR-5 > 100 µM | SK-MEL-28 > 100 µM | HOP-92 > 100 µM | SW-620 > 100 µM | OVCAR-3 > 100 µM | NCI-H522 > 100 µM | SK-OV-3 > 100 µM | NCI-H460 > 100 µM | SF-268 > 100 µM | SF-539 > 100 µM | SNB-75 > 100 µM | HL-60 > 100 µM | SK-MEL-2 > 100 µM | SN12C > 100 µM | HT-29 > 100 µM | KM12 > 100 µM | COLO 205 > 100 µM | LOX IMVI > 100 µM

CN(C)CCSc1nccc(-c2ccc(-c3ccnc(SCCN(C)C)n3)s2)n1
inactive: RXF 393 6.14 µM | UACC-62 15.3 µM | OVCAR-5 9.1 µM | SK-MEL-28 19.1 µM | HOP-92 10.9 µM | SW-620 3.18 µM | OVCAR-3 13.4 µM | NCI-H522 15.9 µM | SK-OV-3 19.1 µM | NCI-H460 3.01 µM | SF-268 8.17 µM | SF-539 6.87 µM | SNB-75 14.4 µM | HL-60 2.37 µM | SK-MEL-2 13.6 µM | SN12C 6.75 µM | HT-29 2.57 µM | KM12 4.91 µM | COLO 205 9.4 µM | LOX IMVI 3.42 µM

COc1ccc(N2C(=O)C3C=CC(n4[nH]c(=O)n(Cc5ccccc5)c4=O)CC3C2=O)cc1 (stereo unspecified)
inactive: RXF 393 > 100 µM | UACC-62 > 100 µM | OVCAR-5 > 100 µM | SK-MEL-28 > 100 µM | HOP-92 > 100 µM | SW-620 > 100 µM | OVCAR-3 > 100 µM | NCI-H522 > 100 µM | SK-OV-3 > 100 µM | NCI-H460 > 100 µM | SF-268 > 100 µM | SF-539 > 100 µM | SNB-75 > 100 µM | HL-60 > 100 µM | SK-MEL-2 > 100 µM | SN12C > 100 µM | HT-29 > 100 µM | KM12 > 100 µM | COLO 205 > 100 µM | LOX IMVI > 100 µM

NC1(C(=O)O)CCc2ccc(N(CCCl)CCCl)cc2C1 (stereo unspecified)
inactive: RXF 393 > 100 µM | UACC-62 22.5 µM | OVCAR-5 39.9 µM | SK-MEL-28 > 100 µM | HOP-92 > 100 µM | SW-620 > 100 µM | OVCAR-3 > 100 µM | NCI-H522 26.7 µM | SK-OV-3 > 100 µM | NCI-H460 10.2 µM | SF-268 24.3 µM | SF-539 34.5 µM | SNB-75 98.2 µM | HL-60 9.82 µM | SK-MEL-2 38.7 µM | SN12C 49.3 µM | HT-29 > 100 µM | KM12 > 100 µM | COLO 205 > 100 µM | LOX IMVI 39.7 µM

CCOC1=C2N=C(Cc3ccc(F)cc3)NC2C(=O)c2ccccc21 (stereo unspecified)
inactive: RXF 393 18.3 µM | UACC-62 22.1 µM | OVCAR-5 45.4 µM | SK-MEL-28 27.5 µM | HOP-92 10.7 µM | OVCAR-3 18.6 µM | NCI-H522 8.67 µM | SK-OV-3 38.2 µM | NCI-H460 12.6 µM | SF-539 13.3 µM | SNB-75 15.7 µM | HL-60 4.68 µM | SK-MEL-2 17.6 µM | HT-29 21.1 µM | KM12 27.5 µM | COLO 205 23.3 µM | LOX IMVI 22.2 µM

COc1ccc2c(C)cc(N/N=C/c3sccc3C)nc2c1
inactive: RXF 393 14.9 µM | UACC-62 15.9 µM | OVCAR-5 13.5 µM | SK-MEL-28 14.8 µM | HOP-92 16.1 µM | SW-620 21.6 µM | OVCAR-3 2.99 µM | NCI-H522 10.2 µM | SK-OV-3 17.1 µM | SF-268 17.4 µM | SF-539 14.3 µM | SNB-75 12.1 µM | HL-60 46.8 µM | SK-MEL-2 15.6 µM | SN12C 7.11 µM | HT-29 2.81 µM | KM12 8.05 µM | COLO 205 3.91 µM | LOX IMVI 7.59 µM

Cc1cc2c(C(C)C)c(O)c(O)c(/C=N/c3ccccc3)c2c(O)c1-c1c(C)cc2c(C(C)C)c(O)c(O)c(/C=N/c3ccccc3)c2c1O
inactive: RXF 393 > 100 µM | UACC-62 > 100 µM | OVCAR-5 > 100 µM | SK-MEL-28 > 100 µM | HOP-92 > 100 µM | SW-620 > 100 µM | OVCAR-3 > 100 µM | NCI-H522 > 100 µM | SK-OV-3 > 100 µM | NCI-H460 > 100 µM | SF-268 > 100 µM | SF-539 > 100 µM | SNB-75 67.8 µM | HL-60 > 100 µM | SK-MEL-2 > 100 µM | SN12C > 100 µM | HT-29 > 100 µM | KM12 > 100 µM | COLO 205 > 100 µM | LOX IMVI > 100 µM
